Data on 3 molecules can be found in the NIST ThermoML archive (doi:10.1016/j.jct.2005.07.016).

Data set [1] can be described thus: refractive index (Na D-line) (dimensionless). As to conditions: 298.15 K; 101.33 kPa; Liquid; Standard Abbe refractometry.
The conditions of data set [2]: Liquid.

± gives the expanded uncertainty stated by the source.

For the molecule `CC(Cl)(Cl)Cl` [1,1,1-trichloroethane], in data set [1], the refractive index (as a rule, the speed of light in vacuum divided by its phase velocity in the sample) was found to be 1.4354 ± 0.0007. The vapor or sublimation pressure (commonly the pressure of vapour in equilibrium with the condensed phase) in data set [2] (298.15 K) is on record as 16.69 ± 0.35 kPa; in data set [2] (303.15 K), 20.34 ± 0.41 kPa; in data set [2] (308.15 K), 25.22 ± 0.49 kPa; in data set [2] (313.15 K), 30.78 ± 0.57 kPa.
Consider `ClCCCl` [1,2-dichloroethane], for which, in data set [1], the refractive index is on record as 1.4421 ± 0.0007. Further, the “vapor or sublimation pressure” value in data set [2] (292.85 K) came to 8.09 ± 0.21 kPa; in data set [2] (295.55 K), 9.23 ± 0.23 kPa; in data set [2] (298.15 K), 10.47 ± 0.25 kPa; in data set [2] (302.35 K) it was 12.81 ± 0.29 kPa; in data set [2] (303.15 K), 13.34 ± 0.91 kPa; in data set [2] (306.25 K), 15.46 ± 0.33 kPa. Besides, the “vapor or sublimation pressure” value in data set [2] (308.15 K) turned out to be 16.77 ± 1.1 kPa; in data set [2] (309.95 K), 18.17 ± 0.37 kPa; in data set [2] (313.15 K), 20.88 ± 1.3 kPa; in data set [2] (313.65 K), 21.29 ± 0.42 kPa.
On to `O=C1CCCC1` [cyclopentanone], for which the refractive index in data set [1] turned out to be 1.4347 ± 0.0007. Further, the “vapor or sublimation pressure” value in data set [2] (291.95 K) came to 1.16 ± 0.1 kPa; in data set [2] (295.15 K), 1.5 ± 0.1 kPa; in data set [2] (298.15 K) it was 1.61 ± 0.33 kPa; in data set [2] (299.35 K), 1.65 ± 0.11 kPa; in data set [2] (303.15 K) it was 2.03 ± 0.11 kPa; in data set [2] (307.05 K), 2.6 ± 0.12 kPa. Further, the “vapor or sublimation pressure” value in data set [2] (308.15 K) amounted to 2.68 ± 0.38 kPa; in data set [2] (310.45 K) it was 3 ± 0.13 kPa; in data set [2] (313.15 K) it was 3.41 ± 0.13 kPa; in data set [2] (316.75 K), 4.03 ± 0.14 kPa.
